Results taken from patent US20190343908A1, “Therapeutic Combination for the Treatment of Cancer” (Nerium Biotechnology Inc., priority 2011, published 2019).

Columns and labels:
HT55 (colorectal cancer) = assay: Sulforhodamine B viability assay, HT55; type: cell-based, human; set-up: key: absorbance (optical density) at 570 nm, second wavelength subtracted
Description: (§1) Three different viability assays were chosen to complement each other and yielded results dependent on concentration and cell line: the Methyl Tetrazolium dye assay, the Sulforhodamine B fluorescent dye assay, and the Crystal Violet dye assay.
The Sulforhodamine B and Crystal Violet assays provide information about protein and were used to complement the Methyl-Tetrazolium dye assay. […] It is used for the quantification of cellular proteins of cultured cells. The assay using Crystal Violet, a dye that binds electrostatically to proteins and stains DNA, provides a reliable, simple assay for measuring viability of cells.
(§2) The Methyl Tetrazolium, Sulforhodamine B, and Crystal Violet assays were used to assess cell viabilities. The incubation times were 24 hours, 48 hours, and 72 hours. The Nerium oleander extract Anvirzel™ (a hot water extract of oleander obtained from Salud Integral, Honduras) was tested in concentrations ranging from 0.01 ng/mL to 10 ng/mL.
(§3) Cells were detached by trypsinization (Trypsin-0.25% EDTA, Invitrogen, 25200-072) during the logarithmic phase of culture growth and plated in 96-well plates (18.000 cells/well) (Corning, Costar 359) in a final volume of 200 μl of medium per well. […] The absorbance was measured after 24 hours, 48 hours, and 72 hours of incubation.
For the Sulforhodamine B assay, 96-well plates were fixed by 10% trichloroacetic acid (Fluka, 91228) and were incubated at 4° C. for 1 hour. Afterwards, plates were rinsed with water and cells were stained with 0.4% Sulforhodamine B (Sigma, 341738), dissolved in 1% acetic acid (Carlo Ebra, 401422) for 15 minutes at room temperature (RT). The unbound stain was washed twice with 1% acetic acid. Finally, 10 mM Tris Buffer pH 10.5 (Sigma, T6791) was added to dissolve the dye.
(§4) The optical density of each plate was measured on a μQuant spectrophotometer and the data were analyzed with Gen5 software (μQuant Biomolecular Spectrophotometer MQX200 and Gen5™ Microplate Data Collection & Analysis software, BioTek® Instruments. Inc, April 2008). Absorbance was measured at 570 nm for all assays and a second wavelength was measured in order to subtract noise. For the Methyl-Tetrazolium assay this second wavelength was 630 nm and for the Sulforhodamine B and Crystal Violet assays it was 690 nm.

[1] = test system: HCT-15 (colorectal cancer); assay: Methyl-Tetrazolium viability assay, HCT-15; type: cell-based, human; set-up: key to MTT Average: absorbance (optical density) at 570 nm, second wavelength subtracted; details: for MTT Average 24 h / MTT Average 48 h / MTT Average 72 h: HCT-15, Run 1
Description: as §1
The Methyl-Tetrazolium dye assay measures the activity of enzymes in mitochondria. The dye precursor is taken up by cells, where it undergoes reduction to the purple formazan. It measures only the mitochondrial activity and, thus, it is not always a reliable indication of whether the cells themselves are alive or dead, since even a recently dead cell has […] enzyme activity in mitochondria. Intracellular glucose concentration, pH, and time before assay all affect the measurements.
as §2, §3
For the Methyl-Tetrazolium assay, the dye (Sigma, M2128; 5 mg/mL, diluted in phosphate-buffered saline) was added to each well and plates were incubated for 3 hours at 37° C. After the end of the incubation period, the medium was discarded and the cells were rinsed with phosphate-buffered saline. Finally, the formazan crystals were dissolved in dimethylsulphoxide (Sigma, D4540).
as §4

## N.N.[Cl][Pt][Cl] [cisplatin]
HT55 (colorectal cancer); HT55, Run 1, 24 h, 0.1 μg/ml CDDP
  SRB Average: 2.17
HT55 (colorectal cancer); HT55, Run 1, 24 h, 1 μg/ml CDDP
  SRB Average: 2.229
HT55 (colorectal cancer); HT55, Run 1, 24 h, 10 μg/ml CDDP
  SRB Average: 2.246
HT55 (colorectal cancer); HT55, Run 1, 24 h, 100 μg/ml CDDP
  SRB Average: 2.052
HT55 (colorectal cancer); HT55, Run 1, 48 h, 0.1 μg/ml CDDP
  SRB Average: 2.437
HT55 (colorectal cancer); HT55, Run 1, 48 h, 1 μg/ml CDDP
  SRB Average: 2.238
HT55 (colorectal cancer); HT55, Run 1, 48 h, 10 μg/ml CDDP
  SRB Average: 2
HT55 (colorectal cancer); HT55, Run 1, 48 h, 100 μg/ml CDDP
  SRB Average: 2.009
HT55 (colorectal cancer); HT55, Run 1, 72 h, 0.1 μg/ml CDDP
  SRB Average: 2.413
HT55 (colorectal cancer); HT55, Run 1, 72 h, 1 μg/ml CDDP
  SRB Average: 2.434
HT55 (colorectal cancer); HT55, Run 1, 72 h, 10 μg/ml CDDP
  SRB Average: 2.222
HT55 (colorectal cancer); HT55, Run 1, 72 h, 100 μg/ml CDDP
  SRB Average: 1.875
HT55 (colorectal cancer); HT55 Run 2, 24 h, 0.1 μg/ml CDDP
  SRB Average: 2.445
HT55 (colorectal cancer); HT55 Run 2, 24 h, 1 μg/ml CDDP
  SRB Average: 2.327
HT55 (colorectal cancer); HT55 Run 2, 24 h, 10 μg/ml CDDP
  SRB Average: 2.387
HT55 (colorectal cancer); HT55 Run 2, 24 h, 100 μg/ml CDDP
  SRB Average: 2.766
HT55 (colorectal cancer); HT55 Run 2, 48 h, 0.1 μg/ml CDDP
  SRB Average: 2.408
HT55 (colorectal cancer); HT55 Run 2, 48 h, 1 μg/ml CDDP
  SRB Average: 2.098
HT55 (colorectal cancer); HT55 Run 2, 48 h, 10 μg/ml CDDP
  SRB Average: 1.814
HT55 (colorectal cancer); HT55 Run 2, 48 h, 100 μg/ml CDDP
  SRB Average: 1.508
HT55 (colorectal cancer); HT55 Run 2, 72 h, 0.1 μg/ml CDDP
  SRB Average: 2.564
HT55 (colorectal cancer); HT55 Run 2, 72 h, 1 μg/ml CDDP
  SRB Average: 1.804
HT55 (colorectal cancer); HT55 Run 2, 72 h, 10 μg/ml CDDP
  SRB Average: 1.74
HT55 (colorectal cancer); HT55 Run 2, 72 h, 100 μg/ml CDDP
  SRB Average: 2.019
HT55 (colorectal cancer); HT55 Run 3, 24 h, 0.1 μg/ml CDDP
  SRB Average: 2.101
HT55 (colorectal cancer); HT55 Run 3, 24 h, 1 μg/ml CDDP
  SRB Average: 1.801
HT55 (colorectal cancer); HT55 Run 3, 24 h, 10 μg/ml CDDP
  SRB Average: 2.557
HT55 (colorectal cancer); HT55 Run 3, 24 h, 100 μg/ml CDDP
  SRB Average: 2.038
HT55 (colorectal cancer); HT55 Run 3, 48 h, 0.1 μg/ml CDDP
  SRB Average: 2.648
HT55 (colorectal cancer); HT55 Run 3, 48 h, 1 μg/ml CDDP
  SRB Average: 2.071
HT55 (colorectal cancer); HT55 Run 3, 48 h, 10 μg/ml CDDP
  SRB Average: 2.649
HT55 (colorectal cancer); HT55 Run 3, 48 h, 100 μg/ml CDDP
  SRB Average: 1.727
HT55 (colorectal cancer); HT55 Run 3, 72 h, 0.1 μg/ml CDDP
  SRB Average: 2.177
HT55 (colorectal cancer); HT55 Run 3, 72 h, 1 μg/ml CDDP
  SRB Average: 1.424
HT55 (colorectal cancer); HT55 Run 3, 72 h, 10 μg/ml CDDP
  SRB Average: 2.784
HT55 (colorectal cancer); HT55 Run 3, 72 h, 100 μg/ml CDDP
  SRB Average: 1.831
[1]; 0.1 μg/ml CDDP
  MTT Average 24 h: 0.218
  MTT Average 48 h: 0.324
  MTT Average 72 h: 0.464
[1]; 1 μg/ml CDDP
  MTT Average 24 h: 0.032
  MTT Average 48 h: 0.032
  MTT Average 72 h: 0.025
[1]; 10 μg/ml CDDP
  MTT Average 24 h: 0.1
  MTT Average 48 h: 0.046
  MTT Average 72 h: 0.03
[1]; 100 μg/ml CDDP
  MTT Average 24 h: 0.034
  MTT Average 48 h: 0.023
  MTT Average 72 h: 0.017
[1]; Run 2, 24 h, 0.1 μg/ml CDDP
  MTT Average: 0.141
[1]; Run 2, 24 h, 1 μg/ml CDDP
  MTT Average: 0.03
[1]; Run 2, 24 h, 10 μg/ml CDDP
  MTT Average: 0.094
[1]; Run 2, 24 h, 100 μg/ml CDDP
  MTT Average: 0.025
[1]; Run 2, 48 h, 0.1 μg/ml CDDP
  MTT Average: 0.233
[1]; Run 2, 48 h, 1 μg/ml CDDP
  MTT Average: 0.031
[1]; Run 2, 48 h, 10 μg/ml CDDP
  MTT Average: 0.067
[1]; Run 2, 48 h, 100 μg/ml CDDP
  MTT Average: 0.014
[1]; Run 2, 72 h, 0.1 μg/ml CDDP
  MTT Average: 0.214
[1]; Run 2, 72 h, 1 μg/ml CDDP
  MTT Average: 0.016
[1]; Run 2, 72 h, 10 μg/ml CDDP
  MTT Average: 0.041
[1]; Run 2, 72 h, 100 μg/ml CDDP
  MTT Average: 0.01
[1]; Run 3, 24 h, 0.1 μg/ml CDDP
  MTT Average: 0.294
[1]; Run 3, 24 h, 1 μg/ml CDDP
  MTT Average: 0.028
[1]; Run 3, 24 h, 10 μg/ml CDDP
  MTT Average: 0.137
[1]; Run 3, 24 h, 100 μg/ml CDDP
  MTT Average: 0.039
[1]; Run 3, 48 h, 0.1 μg/ml CDDP
  MTT Average: 0.391
[1]; Run 3, 48 h, 1 μg/ml CDDP
  MTT Average: 0.035
[1]; Run 3, 48 h, 10 μg/ml CDDP
  MTT Average: 0.104
[1]; Run 3, 48 h, 100 μg/ml CDDP
  MTT Average: 0.026
[1]; Run 3, 72 h, 0.1 μg/ml CDDP
  MTT Average: 0.457
[1]; Run 3, 72 h, 1 μg/ml CDDP
  MTT Average: 0.039
[1]; Run 3, 72 h, 10 μg/ml CDDP
  MTT Average: 0.043
[1]; Run 3, 72 h, 100 μg/ml CDDP
  MTT Average: 0.017
